Source: paper PMC4506051, “Pharmacokinetic Profiles of Active Ingredients and Its Metabolites Derived from Rikkunshito, a Ghrelin Enhancer, in Healthy Japanese Volunteers: A Cross-Over, Randomized Study” (PLoS ONE, 2015)
Like-named read-outs stand apart in the source and are kept apart here.

What was measured:
[1] = Randomized crossover quantitative trial: plasma pharmacokinetics of nine ingredients after rikkunshito 2.5, 5.0 or 7.5 g; conditions: for Tmax / AUC(0-t) / Cmax / half-life: human; for Plasma concentration just before the administration: all subjects, quantitative trial
Text: The first trial was a nonrandomized, open-label, one-period design. The second trial was a randomized, open-label, three-arm, three-period design (Fig 1). With respect to inclusion criteria, the studies included healthy Japanese adults between 20 and 45 years of age with a body mass index between 18 and 25 who were willing and able to comply with the study requirements. Exclusion criteria for this study included a history of significant liver, heart, or vessel disease and consumption of supplements that contained any rikkunshito ingredients or any drug within 3 days to 1 week before the first dose. Other standard exclusion criteria included relevant allergies, pregnant or nursing females, and any alcohol or nicotine use. The sample size was set as more than 15 based on the Ministry of Health, Labour and Welfare’s guidelines. Subjects allocated to a screening test were randomized to one of three groups by the central allocation system (allocation ratio 1:1:1). A random sequence was generated using a computer. The safety endpoint was evaluated in all volunteers. This endpoint was defined on the basis of a physician’s judgement after examination or observation that a serious adverse event had occurred. Adverse events included death, a life-threatening event, an event requiring hospitalization for treatment or an extended stay in hospital, an event resulting in permanent or temporary disability or dysfunction, an event resulting in a congenital abnormality, or any other serious medical phenomenon. With respect to side effects, no specific conditions were defined, and all adverse events for which no causal relationship with the drug could be excluded were deemed to be side effects. In each stage during the 48-h period following rikkunshito administration, the physician monitored the patient for subjective symptoms, objective findings, swelling, body temperature (axillary), blood pressure (sitting), and pulse (sitting). The physician also conducted a hematological examination to measure the patient’s red blood cell, leucocyte and platelet counts, hemoglobin level, and hematocrit value. A biochemical examination was conducted to determine total protein, blood urea nitrogen, creatinine, uric acid, aspartate aminotransferase, alanine aminotransferase, total bilirubin, alkaline phosphatase, γ-glutamyltranspeptidase albumin, prothrombin time, total cholesterol, C-reactive protein, and potassium to identify any abnormalities in comparison with the subject’s condition prior to administration. All participants fasted for 12 h before administration and 4 h after administration of the study drug.
In the second quantitative trial, 12-mL blood samples were collected at 0 (preadministration), 0.25, 0.5, 1, 2, 3, 4, 6, 8, 10, 12, 24, and 48 h after a single oral administration of rikkunshito (Lot H05142). A total of 3 daily doses were used in this trial, i.e., the clinical dose per administration (2.5 g) as the lowest dose, the clinical daily dose (7.5 g) as the highest dose, and an intermediate dose (5.0 g), to broadly discuss the pharmacokinetic characteristics of the ingredients measured. The trial participants were hospitalized overnight on the day they ingested rikkunshito, and returned home the following day after blood samples were collected at the 24-h time point. The participants returned to the hospital to provide blood samples at 48 h. The blood was immediately centrifuged at 1700 ×g for 15 min to obtain plasma. Plasma fractions were stored at −20°C or lower until analysis.
Plasma, urine, and rikkunshito formulation samples were analyzed for rikkunshito ingredients concentrations using a liquid chromatography–mass spectrometry with tandem mass spectrometer assay (LC–MS/MS; API5000, Triple Quad 6500, or QTRAP5500; AB Sciex, Tokyo, Japan) or gas chromatography–mass spectrometry. Further information of analytical methods can be found at S1 Appendix.

[2] = Exploratory trial: amount of rikkunshito ingredients in urine; assay type: in vivo, human; conditions: mean ± S.D., n = 4; for Amount in urine, 0–4 h: 0–4 h after single oral rikkunshito 7.5 g; for Amount in urine, 4–8 h: 4–8 h after single oral rikkunshito 7.5 g; for Amount in urine, Pre: preadministration (between dinner and bedtime)
In short: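 LC–MS/MS measurement of rikkunshito constituents in urine fractions (pre-dose, 0–4 h, 4–8 h) following one 7.5 g oral dose. Other constituents: enzymatic deglucuronidation at 37 °C for 2 h, then SPE cleanup with atractylenolide III or digoxin as IS; synephrine: erythromycin IS, Ostro plate.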

[3] = Stability of ingredients in gastric pH solution (pH 1.2, 37°C); assay type: physicochemical
Protocol: Rikkunshito gradually dissolved in acidic solution (pH 1.2) at 37°C, and the concentration of atractylodin after adding 0.25, 0.5, 1, and 2 h was measured by gas chromatography–mass spectrometry.

[4] = Formation of ingredients derived from rikkunshito in formulation, blood, and urine (S11 Table summary); conditions: after rikkunshito administration, per ingredient in the formulation; for Formation of ingredients: form found in Urine: BQL = below the quantification limit
5-HT2BR = test system: 5-HT2BR; parameters: method as in PMID 18439428; conditions: cited from earlier work
[5] = plasma, po, 2.5 g, AUC0-last, rikkunshito 2.5 g single oral, n = 21, geometric mean (95% CI)
[6] = plasma, po, 2.5 g, C max, rikkunshito 2.5 g single oral, n = 21, geometric mean (95% CI)
[7] = plasma, po, 2.5 g, Median t max (range), rikkunshito 2.5 g single oral, n = 21, median (minimum–maximum)
[8] = plasma, po, 5 g, AUC0-last, rikkunshito 5.0 g single oral, n = 19, geometric mean (95% CI)
[9] = plasma, po, 5 g, C max, rikkunshito 5.0 g single oral, n = 19, geometric mean (95% CI)
[10] = plasma, po, 5 g, Median t max (range), rikkunshito 5.0 g single oral, n = 19, median (minimum–maximum)
[11] = plasma, po, 5 g, t 1/2, rikkunshito 5.0 g single oral, n = 19, geometric mean (95% CI)
[12] = plasma, po, 7.5 g, AUC0-last, rikkunshito 7.5 g single oral, n = 19, geometric mean (95% CI)
[13] = plasma, po, 7.5 g, C max, rikkunshito 7.5 g single oral, n = 19, geometric mean (95% CI)
[14] = rikkunshito 7.5 g single oral, n = 19, geometric mean (95% CI)
[15] = rikkunshito 7.5 g single oral, n = 19, median (minimum–maximum)
[16] = rikkunshito in acidic solution (pH 1.2) at 37°C, 0.5 h
[17] = rikkunshito in acidic solution (pH 1.2) at 37°C, 1 h
[18] = rikkunshito in acidic solution (pH 1.2) at 37°C, 2 h

| Compound | AUC(0-t) [1, 5] [ng·h/mL] | Cmax [1, 6] [ng/mL] | Tmax [1, 7] [h] | AUC(0-t) [1, 8] [ng·h/mL] | Cmax [1, 9] [ng/mL] | Tmax [1, 10] [h] | half-life [1, 11] [h] | AUC(0-t) [1, 12] [ng·h/mL] | Cmax [1, 13] [ng/mL] | t 1/2 [1, 14] | Median t max (range) [1, 15] | Amount in urine, 0–4 h [2] [ng] | Amount in urine, 4–8 h [2] | Amount in urine, Pre [2] | Plasma concentration just before the administration [1] | Stability in gastric pH solution, Quantitative value [3, 16] [ng/mL] | Stability in gastric pH solution, Quantitative value [3, 17] [ng/mL] | Stability in gastric pH solution, Quantitative value [3, 18] [ng/mL] | Formation of ingredients: form found in Urine [4] | also measured |
| --- | --- | --- | --- | --- | --- | --- | --- | --- | --- | --- | --- | --- | --- | --- | --- | --- | --- | --- | --- | --- |
| CC1(C)[C@@H](O)CC[C@]2(C)[C@H]3C(=O)C=C4[C@@H]5C[C@@](C)(C(=O)O)CC[C@]5(C)CC[C@@]4(C)[C@]3(C)CC[C@@H]12 [18β-Glycyrrhetinic acid] | 292 | 23 | 8 | 638 | 44.2 | 8 | 8.94 | 832 | 55.6 | 11.7 (8.90–15.3) h | 8.00 (5.98–23.7) h |  |  |  |  |  |  |  |  | Tmax ([1]; plasma, oral, t max, after rikkunshito administration, dose not given): 8 h; half-life ([1]; plasma, po, 7.5 g, t 1/2, rikkunshito 7.5 g single oral, n = 19, geometric mean (95% CI)): > 10 h; Median t max (range) ([1]; rikkunshito 7.5 g single oral, n = 19, median (minimum–maximum), listed as 18β-glycyrrhetinic acid): exceeding 3 h |
| C/C=C/C#CC#C/C=C/c1ccco1 [Atractylodin] |  |  |  |  |  |  |  |  |  | 0.888 (0.687–1.15) h | 0.500 (0.250–1.00) h | 75.8 ± 152 | BQL | BQL | BQL | 9.03 | 9.72 | 8.13 | Atractylodin | AUC(0-t) ([1]; in vivo, po, 2.5 g): 0.318 ng·h/mL; Cmax ([1]; in vivo, po, 2.5 g): 0.531 ng/mL; Tmax ([1]; in vivo, po, 2.5 g, Median t max (range), rikkunshito 2.5 g single oral, n = 21, median (minimum–maximum)): 0.5 h; AUC(0-t) ([1]; in vivo, po, 5 g): 1.06 ng·h/mL; Cmax ([1]; in vivo, po, 5 g): 1.02 ng/mL; Tmax ([1]; in vivo, po, 5 g, Median t max (range), rikkunshito 5.0 g single oral, n = 19, median (minimum–maximum)): 0.5 h; half-life ([1]; in vivo, po, 5 g, t 1/2, rikkunshito 5.0 g single oral, n = 19, geometric mean (95% CI)): 0.746 h; AUC(0-t) ([1]; in vivo, po, 7.5 g): 1.76 ng·h/mL; Cmax ([1]; in vivo, po, 7.5 g): 1.57 ng/mL; Tmax ([1]; in vivo, po, 7.5 g, Median t max (range), rikkunshito 7.5 g single oral, n = 19, median (minimum–maximum)): ≤ 1 h; Stability in a solution with the same pH as that in the stomach ([3]; pH 1.2, 37°C, S10 Table): stable |
| O=C(/C=C/c1ccc(O)cc1)c1ccc(O)cc1O [Isoliquiritigenin] | 0.0307 | 0.0205 | 0.25 | 0.0766 | 0.0321 | 0.25 | 4.12 | 0.122 | ~0.0428 | 3.26 (1.69–6.31) h | 0.250 (0.250–4.00) h | 741 ± 393 | 1010 ± 451 ng | 0.688 ± 1.38 ng |  |  |  |  |  | C max [1, 14]: 42.8 (30.4–60.3) pg/mL; t 1/2 ([1]; rikkunshito 7.5 g single oral, n = 19, geometric mean (95% CI), listed as isoliquiritigenin): < 10 h; Median t max (range) ([1]; rikkunshito 7.5 g single oral, n = 19, median (minimum–maximum), listed as isoliquiritigenin): ≤ 1 h; Stability in gastric pH solution, Quantitative value ([3]; 0.5 h, pH 1.2): 15.2 ng/mL; Stability in gastric pH solution, Quantitative value ([3]; 1 h, pH 1.2): 15.5 ng/mL; Stability in gastric pH solution, Quantitative value ([3]; 2 h, pH 1.2): 15.2 ng/mL; 5-HT2BR inhibitory/antagonistic activity (5-HT2BR): inhibits; 5-HT2BR inhibitory/antagonistic activity (5-HT2BR; listed as isoliquiritigenin): inhibit |
| C=C(CC[C@@H](C(=O)O)[C@H]1[C@H](O)C[C@@]2(C)C3=C(CC[C@]12C)[C@@]1(C)CC[C@H](OC(C)=O)C(C)(C)[C@@H]1CC3)C(C)C [Pachymic acid] |  |  |  |  |  |  |  |  |  | 20.5 (14.4–29.2) h | 6.00 (2.00–11.5) h |  |  |  | BQL | 40.2 | 46.5 | 28.3 | BQL | AUC(0-t) ([1]; in vivo, po, AUC0-last, rikkunshito 2.5 g single oral, n = 21, geometric mean (95% CI)): 0.277 ng·h/mL; AUC(0-t) ([1]; in vivo, po, AUC0-last, rikkunshito 5.0 g single oral, n = 19, geometric mean (95% CI)): 0.716 ng·h/mL; AUC(0-t) ([1]; in vivo, po, AUC0-last, rikkunshito 7.5 g single oral, n = 19, geometric mean (95% CI)): 1.21 ng·h/mL; Cmax ([1]; in vivo, po, C max, rikkunshito 2.5 g single oral, n = 21, geometric mean (95% CI)): 0.0363 ng/mL; Cmax ([1]; in vivo, po, C max, rikkunshito 5.0 g single oral, n = 19, geometric mean (95% CI)): 0.0612 ng/mL; Cmax ([1]; in vivo, po, C max, rikkunshito 7.5 g single oral, n = 19, geometric mean (95% CI)): 0.091 ng/mL; Tmax ([1]; in vivo, po, Median t max (range), rikkunshito 2.5 g single oral, n = 21, median (minimum–maximum)): 6 h; Tmax ([1]; in vivo, po, Median t max (range), rikkunshito 5.0 g single oral, n = 19, median (minimum–maximum)): 6 h; Tmax ([1]; in vivo, po, Median t max (range), rikkunshito 7.5 g single oral, n = 19, median (minimum–maximum)): > 3 h; half-life ([1]; in vivo, po, t 1/2, rikkunshito 5.0 g single oral, n = 19, geometric mean (95% CI)): 16.2 h; Tmax ([1]; in vivo, t max, after rikkunshito administration, dose not given): 6 h; t 1/2 ([1]; rikkunshito 7.5 g single oral, n = 19, geometric mean (95% CI), listed as pachymic acid): exceeding 10 h; Formation of ingredients: form found in Blood [4]: Pachymic acid |
